Results reported in PubChem BioAssay AID248 (DTP/NCI, 2004).
“And” between values parts separate entries of the source, which are not always exact repeats. Identical values can stand only once. Toxic doses and inconclusive results are not listed. Rule as the data show it: active = T/C of 150% or more; inactive = T/C below 125%.

System: L1210 leukemia ip in BDF1 mice, survival T/C
Test: NCI In Vivo Anticancer Drug Screen. Data for tumor model L1210 Leukemia (intraperitoneal) in B6D2F1 (BDF1) mice
Settings: endpoint: mean survival time, higher = longer survival
Summary of the method: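 Ratio derived from survival: compound-dosed mice over vehicle-dosed mice, all bearing a transplantable tumor.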

[1] = dose: 100.0 mg/kg/injection, schedule: Q01DX009 (ip), vehicle: Klucel (hydroxypropylcellulose) (HPC)
[2] = dose: 100.0 mg/kg/injection, schedule: Q04DX003 (ip), vehicle: Klucel (hydroxypropylcellulose) (HPC)
[3] = dose: 200.0 mg/kg/injection, schedule: Q01DX009 (ip), vehicle: Klucel (hydroxypropylcellulose) (HPC)
[4] = dose: 200.0 mg/kg/injection, schedule: Q04DX003 (ip), vehicle: Klucel (hydroxypropylcellulose) (HPC)
[5] = dose: 400.0 mg/kg/injection, schedule: Q01DX009 (ip), vehicle: Klucel (hydroxypropylcellulose) (HPC)
[6] = dose: 400.0 mg/kg/injection, schedule: Q04DX003 (ip), vehicle: Klucel (hydroxypropylcellulose) (HPC)
[7] = dose: 75.0 mg/kg/injection, schedule: Q01DX001 (ip), vehicle: other
[8] = dose: 150.0 mg/kg/injection, schedule: Q01DX001 (ip), vehicle: other
[9] = dose: 300.0 mg/kg/injection, schedule: Q01DX001 (ip), vehicle: other
[10] = dose: 100.0 mg/kg/injection, schedule: Q04DX003 (ip), vehicle: saline with Tween-80
[11] = dose: 200.0 mg/kg/injection, schedule: Q04DX003 (ip), vehicle: saline with Tween-80
[12] = dose: 400.0 mg/kg/injection, schedule: Q04DX003 (ip), vehicle: saline with Tween-80
[13] = dose: 50.0 mg/kg/injection, schedule: Q01DX009 (ip), vehicle: Klucel (hydroxypropylcellulose) (HPC)
[14] = dose: 100.0 mg/kg/injection, schedule: Q01DX009 (ip), vehicle: saline with Tween-80
[15] = dose: 200.0 mg/kg/injection, schedule: Q01DX009 (ip), vehicle: saline with Tween-80
[16] = dose: 100.0 mg/kg/injection, schedule: Q01DX001 (ip), vehicle: carboxymethylcellulose (CMC)

Measured: T/C

CC(=O)CC(=O)Nc1ccc(-c2ccc(NC(=O)CC(C)=O)c(Cl)c2)cc1Cl
inactive: [1] 95 % of control | [2] 98 % of control | [3] 97 % of control | [4] 98 % of control | [5] 93 % of control | [6] 91 % of control

COc1cc2ccc3c(c2cc1OC)C=[N+](C)CC3
inactive: dose: 100.0 mg/kg/injection, schedule: Q01DX009 (ip), vehicle: saline sonified 120 % of control | dose: 100.0 mg/kg/injection, schedule: Q04DX003 (ip), vehicle: saline sonified 98 % of control | dose: 200.0 mg/kg/injection, schedule: Q01DX009 (ip), vehicle: saline sonified 114 % of control | dose: 200.0 mg/kg/injection, schedule: Q04DX003 (ip), vehicle: saline sonified 93 % of control | dose: 400.0 mg/kg/injection, schedule: Q04DX003 (ip), vehicle: saline sonified 102 % of control

N#C[CH2][Sn]([c]1ccccc1)([c]1ccccc1)[c]1ccccc1
inactive: dose: 12.5 mg/kg/injection, schedule: Q04DX002 (ip), vehicle: saline with Tween-80 100 % of control | dose: 25.0 mg/kg/injection, schedule: Q04DX002 (ip), vehicle: saline with Tween-80 96 % of control | dose: 50.0 mg/kg/injection, schedule: Q04DX002 (ip), vehicle: saline with Tween-80 93 % of control

C=C(C)C1CC(=O)C2(C)OC2C1 (stereo not given)
inactive: [7] 102 % of control | [8] 98 % of control | [9] 94 % of control

O=C(/C=C/c1ccc(Cl)c(Cl)c1)c1ccc(Cl)cc1
inactive: dose: 6.25 mg/kg/injection, schedule: Q01DX009 (ip), vehicle: saline with Tween-80 97 % of control | dose: 6.25 mg/kg/injection, schedule: Q04DX003 (ip), vehicle: saline with Tween-80 110 % of control | dose: 12.5 mg/kg/injection, schedule: Q01DX009 (ip), vehicle: saline with Tween-80 97 % of control | dose: 12.5 mg/kg/injection, schedule: Q04DX003 (ip), vehicle: saline with Tween-80 96 % of control | dose: 25.0 mg/kg/injection, schedule: Q01DX009 (ip), vehicle: saline with Tween-80 95 % of control | dose: 25.0 mg/kg/injection, schedule: Q04DX003 (ip), vehicle: saline with Tween-80 94 % of control and 89 % of control | [10] 87 % of control and 88 % of control

S=c1nc[nH]c2c1ncn2-n1cccc1
inactive: dose: 100.0 mg/kg/injection, schedule: Q01DX001 (ip), vehicle: saline with Tween-80 97 % of control | [10] 103 % of control | dose: 200.0 mg/kg/injection, schedule: Q01DX001 (ip), vehicle: saline with Tween-80 87 % of control | [11] 98 % of control | dose: 400.0 mg/kg/injection, schedule: Q01DX001 (ip), vehicle: saline with Tween-80 92 % of control | [12] 98 % of control

Nc1ccc(N)cc1
inactive: dose: 1.5 mg/kg/injection, schedule: Q01DX009 (ip), vehicle: DMSO 94 % of control | dose: 3.0 mg/kg/injection, schedule: Q01DX009 (ip), vehicle: DMSO 92 % of control | dose: 5.0 mg/kg/injection, schedule: Q01DX001 (ip), vehicle: saline 98 % of control | dose: 5.0 mg/kg/injection, schedule: Q01DX009 (ip), vehicle: saline with Tween-80 100 % of control | dose: 5.0 mg/kg/injection, schedule: Q04DX003 (ip), vehicle: saline 103 % of control | dose: 6.0 mg/kg/injection, schedule: Q01DX009 (ip), vehicle: DMSO 92 % of control | dose: 6.25 mg/kg/injection, schedule: Q01DX009 (ip), vehicle: DMSO 94 % of control | dose: 10.0 mg/kg/injection, schedule: Q01DX001 (ip), vehicle: saline 102 % of control | dose: 10.0 mg/kg/injection, schedule: Q01DX009 (ip), vehicle: saline with Tween-80 96 % of control | dose: 10.0 mg/kg/injection, schedule: Q04DX003 (ip), vehicle: saline 98 % of control | dose: 12.5 mg/kg/injection, schedule: Q01DX009 (ip), vehicle: DMSO 89 % of control | dose: 20.0 mg/kg/injection, schedule: Q01DX001 (ip), vehicle: saline 106 % of control | dose: 20.0 mg/kg/injection, schedule: Q01DX009 (ip), vehicle: saline with Tween-80 99 % of control | dose: 20.0 mg/kg/injection, schedule: Q04DX003 (ip), vehicle: saline 97 % of control | dose: 40.0 mg/kg/injection, schedule: Q01DX001 (ip), vehicle: saline 106 % of control | dose: 100.0 mg/kg/injection, schedule: Q04DX003 (ip), vehicle: DMSO 91 % of control | dose: 200.0 mg/kg/injection, schedule: Q04DX003 (ip), vehicle: DMSO 88 % of control

CC(C)c1cccc(C(C)C)c1OC(=O)Nc1ccccc1Cl
inactive: [1] 105 % of control | [2] 100 % of control | [3] 89 % of control | [4] 102 % of control | [5] 89 % of control | [6] 103 % of control

CNC(=O)C1OC(n2cnc3c(N)ncnc32)C(O)C1O (stereo not given)
inactive: dose: 0.19 mg/kg/injection, schedule: Q01DX005 (ip), vehicle: saline 110 % of control | dose: 0.19 mg/kg/injection, schedule: Q01DX009 (ip), vehicle: saline 114 % of control | dose: 0.39 mg/kg/injection, schedule: Q01DX005 (ip), vehicle: saline 105 % of control | dose: 0.39 mg/kg/injection, schedule: Q01DX009 (ip), vehicle: saline 93 % of control | dose: 0.78 mg/kg/injection, schedule: Q01DX005 (ip), vehicle: saline 116 % of control | dose: 0.78 mg/kg/injection, schedule: Q01DX009 (ip), vehicle: saline 103 % of control

CC(C)CCNCC(C)OC(=O)c1ccc([N+](=O)[O-])cc1 (stereo not given)
inactive: [7] 98 % of control | [8] 106 % of control | [9] 95 % of control

CN(C)c1ccc(/C=C/C=N/N=C/c2ccccc2O)cc1
inactive: [7] 89 % of control | [8] 94 % of control

CCc1ccccc1NC(=O)NCc1ccc(C)c(C)c1
inactive: dose: 25.0 mg/kg/injection, schedule: Q01DX009 (ip), vehicle: Klucel (hydroxypropylcellulose) (HPC) 98 % of control | [13] 93 % of control | [1] 93 % of control | [3] 94 % of control | [5] 98 % of control

CCCCCCCCOc1ccccn1
inactive: [14] 110 % of control | [10] 100 % of control | [15] 91 % of control | [11] 105 % of control | [12] 103 % of control

CC1CC(=O)c2ccccc2N1S(C)(=O)=O (stereo not given)
inactive: [1] 95 % of control | [2] 102 % of control | [3] 95 % of control | [4] 102 % of control | [5] 101 % of control | [6] 94 % of control

O=[N+]([O-])Nc1ccc(C(c2ccc(N[N+](=O)[O-])cc2)c2ccc([N+](=O)[O-])cc2)cc1
inactive: dose: 100.0 mg/kg/injection, schedule: Q01DX005 (ip), vehicle: saline with Tween-80 89 % of control | [14] 100 % of control | dose: 200.0 mg/kg/injection, schedule: Q01DX005 (ip), vehicle: saline with Tween-80 100 % of control | [15] 92 % of control | dose: 400.0 mg/kg/injection, schedule: Q01DX005 (ip), vehicle: saline with Tween-80 89 % of control | dose: 400.0 mg/kg/injection, schedule: Q01DX009 (ip), vehicle: saline with Tween-80 94 % of control

Cc1ccc2[nH]c(=O)cc(C)c2c1
inactive: [16] 102 % of control | [10] 95 % of control | [11] 98 % of control | [12] 101 % of control

O=c1ccc2cc(Br)ccc2o1
inactive: [2] 97 % of control | [4] 95 % of control | [6] 97 % of control

CC12CC(C3(O)C(=O)Nc4ccccc43)C(=O)CC1CCC1C2CCC2(C)C(OC(=O)c3ccccc3)CCC12 (stereo not given)
inactive: [13] 93 % of control | [1] 101 % of control | [3] 101 % of control

Cc1ccc(NC(=O)NCCCl)cc1
inactive: dose: 50.0 mg/kg/injection, schedule: Q01DX001 (ip), vehicle: carboxymethylcellulose (CMC) 97 % of control | [16] 97 % of control | dose: 200.0 mg/kg/injection, schedule: Q01DX001 (ip), vehicle: carboxymethylcellulose (CMC) 113 % of control | dose: 400.0 mg/kg/injection, schedule: Q01DX001 (ip), vehicle: carboxymethylcellulose (CMC) 100 % of control
